Test results: ChEMBL document CHEMBL1148807 (J Med Chem, 2007)
Active and inactive are the calls of the source. The rule behind the calls is not given here. Non-standard residues stand in square brackets, D forms with d. Residues, ends and D or L forms follow the SMILES beside them. *: point of attachment. X1 = O=C(Cc1ccc(O)cc1)*

Columns and labels:
[1] = biological target: T1, Vasopressin V1a receptor (Homo sapiens, UniProt P37288); assay: Agonist activity at human vasopressin V1a receptor expressed in CHO cells assessed as accumulation of inositol phosphate up to 1 uM; format: functional, cell-based
Target sequence in this assay (P37288 whole entry, looked up): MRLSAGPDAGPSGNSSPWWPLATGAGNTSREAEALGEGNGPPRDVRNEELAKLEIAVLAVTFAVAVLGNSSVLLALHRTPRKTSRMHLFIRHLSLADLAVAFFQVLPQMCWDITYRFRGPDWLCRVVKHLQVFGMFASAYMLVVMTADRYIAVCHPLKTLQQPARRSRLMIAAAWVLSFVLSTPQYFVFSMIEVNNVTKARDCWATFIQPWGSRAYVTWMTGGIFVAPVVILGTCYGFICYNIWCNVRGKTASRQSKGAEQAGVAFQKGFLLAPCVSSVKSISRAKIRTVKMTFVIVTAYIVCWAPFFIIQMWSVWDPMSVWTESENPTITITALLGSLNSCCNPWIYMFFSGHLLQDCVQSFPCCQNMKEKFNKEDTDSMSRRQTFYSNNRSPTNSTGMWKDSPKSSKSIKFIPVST

[2] = biological target: T2, Oxytocin receptor (Homo sapiens) (UniProt P30559); assay: Agonist activity at human oxytocin receptor expressed in CHO cells assessed as accumulation of inositol phosphate up to 1 uM; format: functional, cell-based
T2 sequence (whole entry): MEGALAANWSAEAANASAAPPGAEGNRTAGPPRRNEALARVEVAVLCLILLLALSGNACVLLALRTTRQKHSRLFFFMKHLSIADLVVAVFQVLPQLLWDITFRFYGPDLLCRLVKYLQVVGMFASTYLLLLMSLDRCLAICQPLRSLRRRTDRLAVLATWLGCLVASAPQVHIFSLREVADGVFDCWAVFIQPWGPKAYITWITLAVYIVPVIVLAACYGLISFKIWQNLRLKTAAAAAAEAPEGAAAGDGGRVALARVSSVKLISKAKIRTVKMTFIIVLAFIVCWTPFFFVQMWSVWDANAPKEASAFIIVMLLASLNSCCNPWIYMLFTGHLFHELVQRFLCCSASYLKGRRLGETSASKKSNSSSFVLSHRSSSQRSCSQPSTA

[3] = biological target: T2, Oxytocin receptor (Homo sapiens); assay: Antagonist activity at oxytocin receptor expressed in CHO cells assessed as AVP-induced inositol monophosphate accumulation by IP-one ELISA test; format: functional, cell-based
[4] = biological target: T3, Vasopressin V1b receptor (Homo sapiens, UniProt P47901); assay: Displacement of [3H]AVP from human vasopressin V1b receptor expressed in CHO cells; format: cell-based
T3 sequence (P47901 whole entry): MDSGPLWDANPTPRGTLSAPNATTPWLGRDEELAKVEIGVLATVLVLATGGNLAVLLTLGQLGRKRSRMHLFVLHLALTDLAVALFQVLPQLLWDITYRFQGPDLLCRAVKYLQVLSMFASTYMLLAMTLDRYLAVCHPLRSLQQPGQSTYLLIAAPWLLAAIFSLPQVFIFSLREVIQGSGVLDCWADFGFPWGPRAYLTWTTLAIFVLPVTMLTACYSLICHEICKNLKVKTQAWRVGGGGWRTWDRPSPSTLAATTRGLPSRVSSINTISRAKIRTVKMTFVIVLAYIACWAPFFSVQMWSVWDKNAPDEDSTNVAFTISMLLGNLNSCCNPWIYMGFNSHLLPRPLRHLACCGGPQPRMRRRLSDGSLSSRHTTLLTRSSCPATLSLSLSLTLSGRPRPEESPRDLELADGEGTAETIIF

[5] = biological target: T1, Vasopressin V1a receptor; assay: Displacement of [3H]AVP from human vasopressin V1a receptor expressed in CHO cells; format: cell-based
Target sequence in this assay (P37288 whole entry): as the sequence (P37288 whole entry, looked up) above

[6] = biological target: Vasopressin V2 receptor (Homo sapiens, UniProt P30518); assay: Displacement of [3H]AVP from human vasopressin V2 receptor expressed in CHO cells; format: cell-based
[7] = biological target: T4, Oxytocin receptor (Homo sapiens, UniProt P30559); assay: Displacement of [3H]AVP from human oxytocin receptor expressed in CHO cells; format: cell-based
T4 sequence (P30559 whole entry): T2 sequence (whole entry)

[8] = biological target: T1, Vasopressin V1a receptor; assay: Antagonist activity at human vasopressin V1a receptor expressed in CHO cells assessed as AVP-induced inositol monophosphate accumulation by IP-one ELISA test; format: functional, cell-based
Target sequence in this assay (P37288 whole entry, looked up): as the sequence (P37288 whole entry, looked up) above

[9] = biological target: T1, Vasopressin V1a receptor; assay: Inhibition of human vasopressin V1a receptor expressed in COS7 cells by HTRF-FRET assay using 384-well plate membranes; format: cell-based; details: cos-7
Target sequence in this assay (P37288 whole entry): as the sequence (P37288 whole entry, looked up) above

[10] = biological target: T1, Vasopressin V1a receptor; assay: Inhibition of human vasopressin V1a receptor expressed in CHO cells by polarisation binding assay using 96-well plate membranes; format: cell-based
Target sequence in this assay (P37288 whole entry): as the sequence (P37288 whole entry, looked up) above

[11] = biological target: T1, Vasopressin V1a receptor; assay: Inhibition of human vasopressin V1a receptor expressed in CHO cells by polarisation binding assay using 384-well plate membranes; format: cell-based
Target sequence in this assay (P37288 whole entry): as the sequence (P37288 whole entry, looked up) above

[12] = biological target: T1, Vasopressin V1a receptor; assay: Inhibition of human vasopressin V1a receptor expressed in COS7 cells by HTRF-FRET assay using 96-well plate cells; format: cell-based; details: cos-7
Target sequence in this assay (P37288 whole entry): as the sequence (P37288 whole entry, looked up) above

[13] = biological target: T1, Vasopressin V1a receptor; assay: Inhibition of human vasopressin V1a receptor expressed in COS7 cells by HTRF-FRET assay using 96-well plate membranes; format: cell-based; details: cos-7
Target sequence in this assay (P37288 whole entry): as the sequence (P37288 whole entry, looked up) above

Chain of Vasopressin V2 receptor (P30518 whole entry): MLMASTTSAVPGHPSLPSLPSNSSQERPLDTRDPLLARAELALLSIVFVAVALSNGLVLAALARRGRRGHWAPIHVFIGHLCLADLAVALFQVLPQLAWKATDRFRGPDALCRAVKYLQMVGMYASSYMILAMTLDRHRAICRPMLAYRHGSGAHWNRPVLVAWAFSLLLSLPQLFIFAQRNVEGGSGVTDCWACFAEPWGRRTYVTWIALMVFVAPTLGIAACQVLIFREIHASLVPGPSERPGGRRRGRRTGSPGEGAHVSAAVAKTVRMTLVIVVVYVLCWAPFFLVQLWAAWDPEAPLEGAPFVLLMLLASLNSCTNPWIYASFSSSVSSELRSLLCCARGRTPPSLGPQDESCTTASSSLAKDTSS

| Activity [1] | Activity [2] | Kinact [3] | Ki [4] | Ki [5] | Ki [6] | Ki [7] | Kinact [8] | Ki [9] | Ki [10] | Ki [11] | Ki [12] | Ki [13] | SMILES |
| --- | --- | --- | --- | --- | --- | --- | --- | --- | --- | --- | --- | --- | --- |
| inactive | inactive | 0.17 nM | 100 nM | 0.09 nM | > 1000 nM | 1.04 nM | 0.28 nM |  |  |  |  |  | CC1CC(C)(C)Nc2c1cc1c(c2S(=O)(=O)O)OC2C(=C1c1c(Cl)c(SCC(=O)NCCCCCC(=O)N(C(=O)[C@H]3CCN(C(=O)[C@H](CCCNC(=N)N)NC(=O)[C@H](CC(N)=O)NC(=O)[C@H](CCC(N)=O)NC(=O)[C@H](Cc4ccccc4)NC(=O)[C@@H](Cc4ccc(O)cc4)N(C)C(=O)CCc4ccc(O)cc4)C3)[C@@H](CCCCN)C(N)=O)c(Cl)c(Cl)c1C(=O)O)CC1C(=NC(C)(C)CC1C)C2S(=O)(=O)O (stereo partly drawn) |
|  |  |  |  |  |  |  |  | 0.21 nM | 0.036 nM | 0.032 nM | 0.28 nM | 0.21 nM | COc1ccc(C[C@@H](NC(=O)Cc2ccc(O)cc2)C(=O)N[C@@H](Cc2ccccc2)C(=O)N[C@@H](CCC(N)=O)C(=O)N[C@@H](CC(N)=O)C(=O)N[C@@H](CCCN=C(N)N)C(=O)N2CCC[C@H]2C(=O)N[C@@H](CCCN=C(N)N)C(N)=O)cc1 (X1-[dY](Me)FQNRPR-NH2) |
